Like-named read-outs stand apart in the source and are kept apart here.
Experiments:
[1] = tested on: colon tissues of ulcerative colitis-induced mice; assay: Histological analysis (H&E staining) of colon tissues of ulcerative colitis-induced mice; format: in vivo, C57BL/6J mice; conditions: 4 μm paraffin sections, colon extracted on day 11
Protocol: (§1) On day 11, the mice were sacrificed by intraperitoneal injection of Alfaxan (Jurox Pty Limited, Australia), and then the colon, which ranges from the cecum site to the site immediately before the anus, was extracted. After all colonic contents in the colon tissues were removed, some specimens were fixed in 4% (v/v) paraformaldehyde fixative for use as pathological specimens, and the other specimens were stored frozen at −80° C. for molecular biological analysis.
The colon tissues stored frozen in Example 3 were fixed in 4% paraformaldehyde for 48 hours and then washed with PBS. The fixed tissues were embedded in paraffin, cut into 4 μm thickness, and stained with hematoxylin and eosin. Then, the stained tissues were observed under a microscope.

[2] = tested on: ulcerative colitis-induced mice; assay: Colon length in DSS-induced ulcerative colitis mice; format: in vivo, C57BL/6J mice; conditions: 3% (w/v) DSS from day 3; oral 100 μl/10 g bw; colon extracted on day 11
Protocol: as §1

myeloperoxidase (MPO) = assay: Myeloperoxidase (MPO) activity in colon tissues of ulcerative colitis-induced mice; format: in vivo, C57BL/6J mice; conditions: colon tissue, day 11; absorbance at 412 nm, average of three measurements
Protocol: as §1
For the mice for which ulcerative colitis had been induced by DSS, activity of MPO, an inflammatory indicator, was checked.
The colon tissues stored frozen in Example 3 were analyzed using the […] Colorimetric Activity Assay Kit (Sigma, USA), in which absorbance at a wavelength of 412 nm was measured three times to calculate an average value.

[3] = tested on: ulcerative colitis-induced mice; assay: Disease activity index (DAI) in DSS-induced ulcerative colitis mice; format: in vivo, C57BL/6J mice; conditions: 3% (w/v) DSS in drinking water from day 3; specimen orally at 100 μl/10 g bw; compared with control group
Protocol: The normal group received a mixture of 9 ml of Koliphor EL (Sigma, USA) and 1 ml of DMSO at the same dose as the BA experimental group. The normal group was allowed to access water ad libitum during the experimental period.
The control group received a mixture of 9 ml of Koliphor EL (Sigma, USA) and 1 ml of DMSO at the same dose as the BA experimental group.
During the experimental period, the mice were caused to defecate once a day. Feces appearance was observed and fecal occult blood was observed using the Beckman Coulter Hemoccult Single Slides (Beckman Coulter, Inc., USA). The observation results were expressed in scores according to the criteria in Table 2.
Disease activity index (DAI)=(Fecal consistency+fecal color)/2

[4] = Changes in body weight of ulcerative colitis-induced mice; format: in vivo, C57BL/6J mice; conditions: 3% (w/v) DSS from day 3; oral 100 μl/10 g bw; measured daily from day 0
Protocol: Since ulcerative colitis-induced animals lose weight, a symptom-alleviating effect was checked by measuring changes in body weight.
For the respective normal group, control group, positive control group, and BA experimental group prepared in Example 1, the body weight was measured using a precision balance at the start of the experiment (day 0), and changes in body weight were measured at daily intervals for comparison.

[5] = Food intake by ulcerative colitis-induced mice; conditions: 3% (w/v) DSS from day 3; oral 100 μl/10 g bw; measured daily, day 0 to day 11
Source text: (§2) In addition, changes in body weight and food intake were observed by measuring the body weight and food intake at daily intervals from the start (day 0) to the end (day 11) of the animal experiment.
(§3) 7-Week-old C57BL/6J mice were purchased from Central Lab. Animal Inc. (Seoul, Korea) and acclimatized for 7 days to an experimental environment, which was maintained at constant humidity and constant temperature under a 12-hour light/dark cycle, while allowing them to access solid feed and water ad libitum. After 7 days of acclimatization period, the mice were divided into normal group, control group, positive control group (sulfasalazine), and BA experimental group (broussochalcone A) (Table 1).
(§4) Sulfasalazine (Sigma, USA) was quantified at 150 mg and dissolved in 1 ml of DMSO to prepare an SUL solution. 9 ml of Koliphor EL was diluted in PBS to prepare a 10% (v/v) Koliphor solution. The SUL solution was mixed with 9 ml of 10% (v/v) Koliphor solution to prepare an SUL specimen. Then, the SUL specimen was quantified and orally administered at 100 μl/10 g·body weight (bw) to the positive control group. […]
(§5) Broussochalcone A (Natural Products Bank, Korea) was quantified at 20 mg and dissolved in 1 ml of DMSO to prepare a BA solution. […] Then, the BA specimen was quantified and orally administered at 100 μl/10 g·body weight (bw) to the BA experimental group. […]

[6] = mouse, in vivo, po
Source text: as §2, §3, §4, §5

| food intake compared with the normal group [6] | SMILES | histological changes in colon tissue: structure of the mucosa [1] | colon length compared with the normal group (in words) [2] | MPO activity as compared with the normal group (in words) (myeloperoxidase (MPO)) | Disease activity index (DAI) = (fecal consistency + fecal color)/2 [3] | decrease in body weight [4] | food intake compared with the normal group [5] | histological changes in colon tissue: goblet cells and surface epithelium [1] | histological changes in colon tissue: immune cell penetration [1] | colon length shorter than that of the normal group [2] | increase in MPO activity as compared with the normal group (myeloperoxidase (MPO)) |
| --- | --- | --- | --- | --- | --- | --- | --- | --- | --- | --- | --- |
|  | CC(C)=CCc1cc(C(=O)/C=C/c2ccc(O)c(O)c2)c(O)cc1O [broussochalcone A] | the structure of the mucosa was maintained | colon length similar to that of the normal group | did not exhibit significantly different MPO activity as compared with the normal group | lower DAI than the control group | about 5% | an increase in food intake as compared with the normal group |  |  |  |  |
| a decrease in food intake | O=C(O)c1cc(/N=N/c2ccc(S(=O)(=O)Nc3ccccn3)cc2)ccc1O [sulfasalazine, Sulfasalazine] | the structure of the mucosa was partially maintained |  |  | high DAI | about 20% |  | had lost goblet cells and surface epithelium | many immune cells had penetrated the colon tissues | about 2.8 cm | about 1.5 fold |
